# Assay results taken from patent publication US20170334899A1, “AMINO-SUBSTITUTED ISOTHIAZOLES” (Bayer Pharma Aktiengesellschaft, priority 2014, published 2017).
# Target: T1, human kinase Mps-1 (Homo sapiens, UniProt P33981)
# T1 construct: N-terminally GST-tagged human full length recombinant Mps-1 kinase; GST (N); purchased Invitrogen, Karslruhe, Germany PV4071
# T1 sequence (P33981 1-857): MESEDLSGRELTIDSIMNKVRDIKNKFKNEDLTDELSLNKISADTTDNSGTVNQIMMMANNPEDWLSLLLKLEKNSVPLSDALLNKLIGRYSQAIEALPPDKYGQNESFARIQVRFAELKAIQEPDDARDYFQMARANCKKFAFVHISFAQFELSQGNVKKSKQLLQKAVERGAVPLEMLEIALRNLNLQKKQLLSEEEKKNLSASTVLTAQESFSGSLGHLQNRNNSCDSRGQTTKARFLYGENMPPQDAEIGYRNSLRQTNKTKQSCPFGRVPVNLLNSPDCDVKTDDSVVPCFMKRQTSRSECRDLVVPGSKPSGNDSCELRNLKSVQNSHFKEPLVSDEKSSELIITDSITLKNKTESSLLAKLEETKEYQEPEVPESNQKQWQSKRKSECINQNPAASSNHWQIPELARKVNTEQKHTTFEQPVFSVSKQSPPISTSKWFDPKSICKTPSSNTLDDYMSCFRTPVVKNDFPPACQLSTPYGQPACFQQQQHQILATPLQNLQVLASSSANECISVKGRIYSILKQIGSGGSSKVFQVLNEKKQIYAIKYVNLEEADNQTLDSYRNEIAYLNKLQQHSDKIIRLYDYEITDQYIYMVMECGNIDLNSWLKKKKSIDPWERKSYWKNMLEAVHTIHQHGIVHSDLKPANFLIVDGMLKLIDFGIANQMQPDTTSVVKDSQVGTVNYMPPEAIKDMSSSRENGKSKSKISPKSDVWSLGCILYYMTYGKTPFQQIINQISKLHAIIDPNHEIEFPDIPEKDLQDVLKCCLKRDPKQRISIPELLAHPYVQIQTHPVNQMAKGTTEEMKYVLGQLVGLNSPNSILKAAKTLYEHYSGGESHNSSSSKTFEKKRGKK
# Assay: Mps-1 kinase assay (TR-FRET)
# Assay type: biochemical
# Settings: Mps-1 TR-FRET kinase assay; avg; read-out: Mps1 avg (IC50 [mol/l])
# Method in brief: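 Inhibition normalised between uninhibited reaction (0%) and enzyme-free wells (100%), using the blank-corrected TR-FRET 665/620 nm ratio after EDTA stop. Reaction: ~0.5 nM GST-Mps-1 full length, 10 μM ATP, 1 μM biotin-peptide, 60 min at 22 °C, after 15 min compound pre-binding, pH 7.7.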
row,SMILES,IC50 [µM]
1,"CC(=O)N1CCC(Oc2ccc(NC(=O)c3c(C)nsc3Nc3cnc4ccccc4n3)cn2)CC1 [Example 22, N-{6-[(1-acetylpiperidin-4-yl)oxy]pyridin-3-yl}-3-methyl-5-(quinoxalin-2-ylamino)-1,2-thiazole-4-carboxamide]",≥ 20
2,"Cc1nsc(Nc2cnc3ccccc3n2)c1C(=O)Nc1cccc(NS(=O)(=O)C2CCN(C(=O)OC(C)(C)C)C2)c1 (centres unmarked) [Example 290, tert-butyl 3-{[3-({[3-methyl-5-(quinoxalin-2-ylamino)-1,2-thiazol-4-yl]carbonyl}amino)phenyl]sulfamoyl} pyrrolidine-1-carboxylate]",> 20
3,"Cc1nsc(Nc2cnc3ccccc3n2)c1C(=O)Nc1cccc(NS(=O)(=O)C2CN(CC(F)F)C2)c1 [Example 286, N-[3-({[1-(2,2-difluoroethyl)azetidin-3-yl]sulfonyl}amino)phenyl]-3-methyl-5-(quinoxalin-2-ylamino)-1,2-thiazole-4-carboxamide]",14
4,"Cc1nsc(Nc2cncc(C(F)(F)F)n2)c1C(=O)Nc1ccc(F)c(OC2CCN(CCF)CC2)c1 [Example 269, N-(4-fluoro-3-{[1-(2-fluoroethyl)piperidin-4-yl]oxy}phenyl)-3-methyl-5-{[6-(trifluoromethyl)pyrazin-2-yl]amino}-1,2-thiazole-4-carboxamide]",> 20
5,"Cc1nsc(Nc2cnc3ccccc3n2)c1C(=O)Nc1cccc(C(=O)NC2CC2)c1 [Example 249, N-[3-(cyclopropylcarbamoyl)phenyl]-3-methyl-5-(quinoxalin-2-ylamino)-1,2-thiazole-4-carboxamide]",> 20
6,"Cc1nsc(Nc2cncc(C(F)(F)F)n2)c1C(=O)Nc1ccc(F)c(OC2CCN(CC(F)(F)F)CC2)c1 [Example 267, N-(4-fluoro-3-{[1-(2,2,2-trifluoroethyl)piperidin-4-yl]oxy}phenyl)-3-methyl-5-{[6-(trifluoromethyl)pyrazin-2-yl]amino}-1,2-thiazole-4-carboxamide]",> 20
7,"Cc1nsc(Nc2cnc(C(F)(F)F)cn2)c1C(=O)Nc1ccc(F)c(OCCCNCCC(F)(F)F)c1 [Example 307, N-(4-fluoro-3-{3-[(3,3,3-trifluoropropyl)amino]propoxy}phenyl)-3-methyl-5-{[5-(trifluoromethyl)pyrazin-2-yl]amino}-1,2-thiazole-4-carboxamide]",≥ 20
8,"Cc1nsc(Nc2cnc(C(F)(F)F)cn2)c1C(=O)Nc1ccc(F)c(OC2CCN(CC(F)F)C2)c1 (centres unmarked) [Example 314, N-(3-{[1-(2,2-difluoroethyl)pyrrolidin-3-yl]oxy}-4-fluorophenyl)-3-methyl-5-{[5-(trifluoromethyl)pyrazin-2-yl]amino}-1,2-thiazole-4-carboxamide]",≥ 20
9,"Cc1nsc(Nc2cnc(C(F)(F)F)cn2)c1C(=O)Nc1ccc(OC2CCN(C(CF)CF)C2)nc1 (centres unmarked) [Example 313, N-(6-{[1-(1,3-difluoropropan-2-yl)pyrrolidin-3-yl]oxy}pyridin-3-yl)-3-methyl-5-{[5-(trifluoromethyl)pyrazin-2-yl]amino}-1,2-thiazole-4-carboxamide]",≥ 20
10,"Cc1nsc(Nc2cnc(C(F)(F)F)cn2)c1C(=O)Nc1ccc(C(=O)NC2CCN(CC(F)F)CC2)cc1 [Example 259, N-(4-{[1-(2,2-difluoroethyl)piperidin-4-yl]carbamoyl}phenyl)-3-methyl-5-{[5-(trifluoromethyl)pyrazin-2-yl]amino}-1,2-thiazole-4-carboxamide]",> 20
11,"Cc1nsc(Nc2cnc(C(F)(F)F)cn2)c1C(=O)Nc1ccc(F)c(OCC2CCN(C(CF)CF)C2)c1 (centres unmarked) [Example 320, N-(3-{[1-(1,3-difluoropropan-2-yl)pyrrolidin-3-yl]methoxy}-4-fluorophenyl)-3-methyl-5-{[5-(trifluoromethyl)pyrazin-2-yl]amino}-1,2-thiazole-4-carboxamide]",≥ 20
